Reference: patent publication US20100137367A1, “NOVEL CRYSTALLINE BEPOTASTINE METAL SALT HYDRATE, METHOD FOR PREPARING SAME, AND PHARMACEUTICAL COMPOSITION COMPRISING SAME” (Hanmi Pharm. Co., Ltd., priority 2007, published 2010)
Where two headings read alike, the source gives them in different places. One block for each compound: values may come before it.

What was measured:
Moisture absorption test = assay type: physicochemical
[1] = Effect of severe storage condition on the optical purity (chiral HPLC); assay type: physicochemical; conditions: for Change of optical purity during the storage / Optical purity (%) After standing at 60° C. and 75% R.H. for 4 weeks in closed condition / Optical purity (%) After standing at 60° C. and 75% R.H. for 4 weeks in open condition: 60° C., 75% R.H., 4 weeks
Procedure: For the measurement of the optical purity of the bepotastine, chiral HPLC was conducted under following conditions and the optical purity was calculated using the Equation 1.
• Detector: Ultraviolet ray spectrophotometer (detection wavelength: 225 nm) • Column: YMC Chiral β-CDs (4.6×250 mm, 5 μm) • Mobile phase: methanol/ammonium acetate buffer solution=45/55(v/v, %) • Flow rate: 0.8 ml/min
Optical Purity (%)=Ps/(Ps+Pr)×100 Equation 1
wherein • Ps is the peak area of bepotastine, and • Pr is the peak area of R-enantiomer of bepotastine.
The optical purities of respective bepotastine salts were determined.

[2] = 40° C. and 75% relative humidity
Text: Accordingly, there have been attempts to convert bepotastine to an acid salt form having a high optical purity which is resistant to racemization.

[3] = Solubility test (saturation solubility); conditions: for Saturation solubility (mg/ml) pH 1.2 buffer solution: pH 1.2 buffer solution (simulates gastric juice); for Saturation solubility (mg/ml) pH 6.8 buffer solution: pH 6.8 buffer solution (simulates intestinal juice)
[4] = Hygroscopicity of bepotastine salts (Table 1); assay type: physicochemical
Text: Further, when the crystalline bepotastine metal salt hydrate of formula (I) of the present invention is stored under an extremely high-moisture condition, its moisture content don't increases substantially, thus, it is non-hygroscopic. In contrast, an alkaline metal salt of bepotastine, e.g., lithium salt, sodium salt, potassium salt, magnesium salt or barium salt of bepotastine; a transition metal salt of bepotastine, e.g., zinc salt, aluminum salt, bismuth salt, or iron salt of bepotastine; an organic amine salt of bepotastine, e.g., ammonium salt, ethyl amine salt, dimethyl amine salt, triethylamine salt or N-methyl glucamine salt of bepotastine; and an amino acidic salt of the bepotastine, e.g., arginine salt, lysine salt, or histidine salt of bepotastine, are mostly obtained as non-crystalline forms, and, even when they are obtained as crystalline forms, they are hygroscopic.

Water contents (%) Day 1 (Moisture absorption test; 25° C., 75% R.H.): 0.6% | Water contents (%) Day 3 (Moisture absorption test; 25° C., 75% R.H.): 0.6% | Water contents (%) Day 7 (Moisture absorption test; 25° C., 75% R.H.): 0.7% | Water contents (%) Day 15 (Moisture absorption test; 25° C., 75% R.H.): 0.6% | Water contents (%) initial (Moisture absorption test; 25° C., 75% R.H.): 0.4% | Water contents (%) Day 1 (Moisture absorption test; 40° C., 75% R.H.): 0.7% | Water contents (%) Day 3 (Moisture absorption test; 40° C., 75% R.H.): 0.8% | Water contents (%) Day 7 (Moisture absorption test; 40° C., 75% R.H.): 0.8% | Water contents (%) Day 15 (Moisture absorption test; 40° C., 75% R.H.): 0.9% | Water contents (%) initial (Moisture absorption test; 40° C., 75% R.H.): 0.4% | Water contents (%) Day 1 (Moisture absorption test; 40° C., 90% R.H.): 2.4% | Water contents (%) Day 3 (Moisture absorption test; 40° C., 90% R.H.): 2.5% | Water contents (%) Day 7 (Moisture absorption test; 40° C., 90% R.H.): 2.4% | Water contents (%) Day 15 (Moisture absorption test; 40° C., 90% R.H.): 2.5% | Water contents (%) initial (Moisture absorption test; 40° C., 90% R.H.): 0.4% | Change of optical purity during the storage [1]: decreases significantly | Optical purity (%) After standing at 60° C. and 75% R.H. for 4 weeks in closed condition [1]: 97.3% | Optical purity (%) After standing at 60° C. and 75% R.H. for 4 weeks in open condition [1]: 95.5% | Optical purity (%) Before the test [1]: 99.9% | Racemization under high moisture condition [2]: slow racemization | Saturation solubility (mg/ml) pH 1.2 buffer solution [3]: 45.0 mg/ml | Saturation solubility (mg/ml) pH 6.8 buffer solution [3]: 28.1 mg/ml
Compound: O=C(O)CCCN1CCC(O[C@@H](c2ccc(Cl)cc2)c2ccccn2)CC1.O=S(=O)(O)c1ccccc1 [Benzenesulfonic acid salt, Bepotastine Benzenesulfonic Acid Salt]

Hygroscopicity (conclusion of moisture absorption test) (Moisture absorption test): essentially non-hygroscopic | Water contents (%) Day 1 (Moisture absorption test; 25° C., 75% R.H.): 4.3% | Water contents (%) Day 3 (Moisture absorption test; 25° C., 75% R.H.): 4.3% | Water contents (%) Day 7 (Moisture absorption test; 25° C., 75% R.H.): 4.4% | Water contents (%) Day 15 (Moisture absorption test; 25° C., 75% R.H.): 4.4% | Water contents (%) initial (Moisture absorption test; 25° C., 75% R.H.): 4.3% | Water contents (%) Day 1 (Moisture absorption test; 40° C., 75% R.H.): 4.4% | Water contents (%) Day 3 (Moisture absorption test; 40° C., 75% R.H.): 4.6% | Water contents (%) Day 7 (Moisture absorption test; 40° C., 75% R.H.): 4.5% | Water contents (%) Day 15 (Moisture absorption test; 40° C., 75% R.H.): 4.6% | Water contents (%) initial (Moisture absorption test; 40° C., 75% R.H.): 4.3% | Increment of water content (Moisture absorption test; 40° C., 90% R.H., 15 days): less than 0.7% | Water contents (%) Day 1 (Moisture absorption test; 40° C., 90% R.H.): 4.7% | Water contents (%) Day 3 (Moisture absorption test; 40° C., 90% R.H.): 4.9% | Water contents (%) Day 7 (Moisture absorption test; 40° C., 90% R.H.): 4.9% | Water contents (%) Day 15 (Moisture absorption test; 40° C., 90% R.H.): 5.0% | Water contents (%) initial (Moisture absorption test; 40° C., 90% R.H.): 4.3% | Change of optical purity during the storage [1]: remained unchanged | Optical purity (%) After standing at 60° C. and 75% R.H. for 4 weeks in closed condition [1]: 99.9% | Optical purity (%) After standing at 60° C. and 75% R.H. for 4 weeks in open condition [1]: 99.9% | Optical purity (%) Before the test [1]: 99.9% | Solubility compared with bepotastine benzenesulfonic acid salt ([3]; pH 1.2): similar | Saturation solubility (mg/ml) pH 1.2 buffer solution [3]: 43.2 mg/ml | Solubility relative to bepotastine benzenesulfonic acid salt ([3]; pH 6.8): at least 2 times | Saturation solubility (mg/ml) pH 6.8 buffer solution [3]: 61.6 mg/ml
Compound: O.O.O=C([O-])CCCN1CCC(O[C@@H](c2ccc(Cl)cc2)c2ccccn2)CC1.O=C([O-])CCCN1CCC(O[C@@H](c2ccc(Cl)cc2)c2ccccn2)CC1.[Ca+2] [Calcium salt hydrate, Bepotastine Calcium Salt Dihydrate]

Compound: NCCCC[C@H](N)C(=O)O [L-Lysine]
Hygroscopicity [4]: Hygroscopic

Hygroscopicity [4]: Hygroscopic
Compound: [Mg] [Magnesium]

Hygroscopicity ([4]; listed as potassium salt of bepotastine): highly hygroscopic
Compound: O=C(O)CCCN1CCC(O[C@@H](c2ccc(Cl)cc2)c2ccccn2)CC1 [Potassium]

Hygroscopicity [4]: Hygroscopic | Hygroscopicity ([4]; listed as sodium salt of bepotastine): highly hygroscopic
Compound: O=C(O)CCCN1CCC(O[C@@H](c2ccc(Cl)cc2)c2ccccn2)CC1 [Sodium]

Compound: O=C(O)CCCN1CCC(OC(c2ccc(Cl)cc2)c2ccccn2)CC1.O=C(O)c1ccccc1 (stereo not shown) [bepotastine benzoic acid salt]
Racemization under high moisture condition [2]: slow racemization

Compound: L-Arginine
Hygroscopicity [4]: Hygroscopic

Hygroscopicity [4]: Hygroscopic
Compound: Zinc
